Reference: publication PMC4840262 (Mutagenesis, 2015)
Counter-ions that a name gives are not always drawn. Like-named read-outs stand apart in the source and are kept apart here. Marks after values point to notes of the source that are not given here.

Legend:
CHO-K1 cells [1] = conditions: cited from earlier work
human lymphocytes [2] = tested on: human lymphocytes
human lymphocytes [3] = tested on: human lymphocytes; remark: listed apart in the source
CHO-K1 cells [4] = conditions: Chinese hamster
rats = conditions: cited from earlier work
mice [5] = conditions: cited from earlier work
[6] = assay type: in vivo; conditions: rat, plasma, po
[7] = tested on: bone marrow polychromatic erythrocytes (PCE); conditions: female, rat, in vivo; for % Micronucleated PCE / % PCE: Han Wistar [Crl:WI(Han)], po
[8] = female, Han Wistar [Cr1 WI(Han)], rat, in vivo, po, 400 mg/kg
[9] = humans, 100mg once or twice a day for 3 days, original commercial oral GI formulation; cited from earlier work
[10] = Wistar rat, oral dose of 40mg/kg, microsuspension, after 4h; cited from earlier work
CHL cells = conditions: cited from earlier work
[11] = tested on: C3H/10T1/2 Cl 8 mouse embryo fibroblasts; conditions: cited from earlier work
in vitro = conditions: male, human, Cytotoxicity (%)
mouse bone marrow = conditions: in vivo, po; cited from earlier work
mice [12] = conditions: mouse, in vivo; cited from earlier work
bacteria (Ames test) = conditions: cited from earlier work
Bacillus subtilis = conditions: cited from earlier work
Saccharomyces cerevisiae = conditions: cited from earlier work
Drosophila melanogaster = conditions: in vivo; cited from earlier work
[13] = human PK studies, high therapeutic doses; cited from earlier work

Structure (SMILES): c1ccc2[nH]c(-c3cscn3)nc2c1 [thiabendazole]
- MNBN induction in CHO-K1 cells (in words) (CHO-K1 cells [1]): inactive

Structure (SMILES): COC(=O)Nc1nc2ccc(C(O)c3ccc(F)cc3)cc2[nH]1 (stereo not drawn) [S-reduced flubendazole]
- Cytotoxicity (%) (human lymphocytes [2]): 0.0%

Structure (SMILES): CO[C@@]12[C@H](COC(N)=O)C3=C(C(=O)C(C)=C(N)C3=O)N1C[C@@H]1N[C@@H]12 [Mitomycin C, mitomycin C]
- Mean MNBN cell frequency (%) (human lymphocytes [2]; male, human): 8.70* %

Structure (SMILES): CC[C@]1(O)C[C@@H]2CN(CCc3c([nH]c4ccccc34)[C@@](C(=O)OC)(c3cc4c(cc3OC)N(C)[C@H]3[C@@](O)(C(=O)OC)[C@H](OC(C)=O)[C@]5(CC)C=CCN6CC[C@]43[C@@H]65)C2)C1 [Vinblastine, vinblastine sulfate]
- Fold increases in MN over concurrent vehicle control (human lymphocytes [2]; 0.12 μg/ml): 56.6
- Frequency of micronucleated binucleate cells (%) (human lymphocytes [2]; male, human): 9.25* %

Structure (SMILES): COC(=O)Nc1nc2ccc([C@H](O)c3ccc(F)cc3)cc2[nH]1 [R-reduced flubendazole]
- Cytotoxicity (%) (human lymphocytes [2]): 3.0%
- Lowest dose, significant increase in micronuclei seen (human lymphocytes [2]): 1.1 µg per ml

Structure (SMILES): CCCSc1ccc2nc(NC(=O)OC)[nH]c2c1 [Albendazole, albendazole]
- Fold increases in MN over concurrent vehicle control (human lymphocytes [2]; male, human): 9.3
- Lowest non-significant doses (micronuclei) (human lymphocytes [2]; male, human): 0.04 µg per ml
- %C+ micronuclei (human lymphocytes [3]; male, human): 72%
- %C− micronuclei (human lymphocytes [3]; male, human): 28%
- BMD10 (CHO-K1 cells [4]): 0.037 µg/mL
- BMDL10 (CHO-K1 cells [4]): 0.027 µg/mL
- Carcinogenicity (in words) (rats; lifetime studies in the rat): negative
- Carcinogenicity (in words) (mice [5]; lifetime studies in the mouse): negative
- Td (threshold dose) (CHO-K1 cells [1]): 0.005 µg/mL
- Td–L–CI (lower confidence Td) (CHO-K1 cells [1]): 0.003 µg/mL

Structure (SMILES): COC(=O)Nc1nc2ccccc2[nH]1 [Carbendazim, carbendazim]
- BMD10 (CHO-K1 cells [4]): 0.310 µg/mL
- BMDL10 (CHO-K1 cells [4]): 0.235 µg/mL
- Td (threshold dose) (CHO-K1 cells [1]): 0.346 µg/mL
- Td–L–CI (lower confidence Td) (CHO-K1 cells [1]): 0.268 µg/mL

Structure (SMILES): CCCOc1ccc2nc(NC(=O)OC)[nH]c2c1 [Oxibendazole, oxibendazole]
- BMD10 (CHO-K1 cells [4]): 0.015 µg/mL
- BMDL10 (CHO-K1 cells [4]): 0.010 µg/mL
- Td (threshold dose) (CHO-K1 cells [1]): 0.032 µg/mL
- Td–L–CI (lower confidence Td) (CHO-K1 cells [1]): 0.032 µg/mL

Structure (SMILES): CCC[S+]([O-])c1ccc2[nH]c(NC(=O)OC)nc2c1 (stereo not drawn) [Albendazole sulfoxide, albendazole sulfoxide]
- Lowest non-significant doses (micronuclei) (human lymphocytes [2]; male, human): 3.0 µg per ml
- %C+ micronuclei (human lymphocytes [3]; male, human): 71%
- %C− micronuclei (human lymphocytes [3]; male, human): 29%
- BMD10 (CHO-K1 cells [4]): 1.100 µg/mL
- BMDL10 (CHO-K1 cells [4]): 0.861 µg/mL
- Td (threshold dose) (CHO-K1 cells [1]): 1.708 µg/mL
- Td–L–CI (lower confidence Td) (CHO-K1 cells [1]): 1.474 µg/mL

Structure (SMILES): CCCCNC(=O)n1c(NC(=O)OC)nc2ccccc21 [Benomyl, benomyl]
- BMD10 (CHO-K1 cells [4]): 0.450 µg/mL
- BMDL10 (CHO-K1 cells [4]): 0.348 µg/mL
- Td (threshold dose) (CHO-K1 cells [1]): 0.659 µg/mL
- Td–L–CI (lower confidence Td) (CHO-K1 cells [1]): 0.520 µg/mL

Structure (SMILES): O=P1(N(CCCl)CCCl)NCCCO1 (stereo not drawn) [Cyclophosphamide, cyclophosphamide]
- Fold increases in MN over concurrent vehicle control (human lymphocytes [2]; male, human): 5.6
- Mean MNBN cell frequency (%) (human lymphocytes [2]; male, human): 1.40* %
- % micronuclei with a centromere (human lymphocytes [3]; male, human): 16%
- % micronuclei without a centromere (human lymphocytes [3]; male, human): 84%

Structure (SMILES): COC(=O)Nc1nc2cc(C(=O)c3ccc(F)cc3)ccc2[nH]1 [Flubendazole, flubendazole]
- AUC(0-t) ([6]; 65 mg/kg): 15100 ng·h/mL
- Cmax ([6]; 65 mg/kg): 910 ng/mL
- AUC(0-t) ([6]; 130 mg/kg): 16500 ng·h/mL
- Cmax ([6]; 130 mg/kg): 900 ng/mL
- AUC(0-t) ([6]; 402 mg/kg): 24900 ng·h/mL
- Cmax ([6]; 402 mg/kg): 1330 ng/mL
- Mean MNBN cell frequency (%) (human lymphocytes [2]; 0.050 µg/ml): 0.10%
- Mean MNBN cell frequency (%) (human lymphocytes [2]; 0.075 µg/ml): 0.30%
- Mean MNBN cell frequency (%) (human lymphocytes [2]; 0.100 µg/ml): 0.55%
- Mean MNBN cell frequency (%) (human lymphocytes [2]; 0.250 µg/ml): 1.15* %
- Mean MNBN cell frequency (%) (human lymphocytes [2]; 0.5 µg/ml): 1.75* %
- Mean MNBN cell frequency (%) (human lymphocytes [2]; 0.500 µg/ml): 3.15* %
- Mean MNBN cell frequency (%) (human lymphocytes [2]; 1.0 µg/ml): 3.38* %
- Mean MNBN cell frequency (%) (human lymphocytes [2]; 1.00 µg/ml): 4.25* %
- Mean MNBN cell frequency (%) (human lymphocytes [2]; 2.0 µg/ml): 0.05%
- Mean MNBN cell frequency (%) (human lymphocytes [2]; 3.0 µg/ml): 5.15* %
- Mean MNBN cell frequency (%) (human lymphocytes [2]; 6.0 µg/ml): 0.85* %
- Mean MNBN cell frequency (%) (human lymphocytes [2]; 6.5 µg/ml): 10.10* %
- Fold increases in MN over concurrent vehicle control (human lymphocytes [2]; 7.5 μg/ml): 7.2
- Mean MNBN cell frequency (%) (human lymphocytes [2]; 7.5 μg/ml): 1.65* %
- Fold increases in MN over concurrent vehicle control (human lymphocytes [2]; 9.0 μg/ml): 28.5
- Mean MNBN cell frequency (%) (human lymphocytes [2]; 9.0 μg/ml): 6.55* %
- Mean MNBN cell frequency (%) (human lymphocytes [2]; 10.0 µg/ml): 0.25%
- Mean MNBN cell frequency (%) (human lymphocytes [2]; 12.0 µg/ml): 0.20%
- Mean MNBN cell frequency (%) (human lymphocytes [2]; 14.0 µg/ml): 0.65* %
- Fold increases in MN over concurrent vehicle control (human lymphocytes [2]; 16 μg/ml): 3.6
- Mean MNBN cell frequency (%) (human lymphocytes [2]; 16.0 µg/ml): 0.90* %
- Mean MNBN cell frequency (%) (human lymphocytes [2]; 19.0 µg/ml): 0.55* %
- Fold increases in MN over concurrent vehicle control (human lymphocytes [2]; 25 μg/ml): 11.5
- Mean MNBN cell frequency (%) (human lymphocytes [2]; 25.0 µg/ml): 2.88* %
- Lowest dose where a statistically significant increase in micronuclei was observed (human lymphocytes [2]; male, human): 0.25 µg/mL
- Lowest non-significant doses (micronuclei) (human lymphocytes [2]; male, human): 0.1 µg per ml
- Lowest tested concentration, statistically significant increases in micronuclei evident (human lymphocytes [2]; male, human): 0.5 µg/mL
- Mode of action of micronucleus induction (in words) (human lymphocytes [3]): acts as an aneugen
- % micronuclei with a centromere (human lymphocytes [3]; 7.5 μg/ml): 80%
- % micronuclei without a centromere (human lymphocytes [3]; 7.5 μg/ml): 20%
- % micronuclei with a centromere (human lymphocytes [3]; 9.0 μg/ml): 88%
- % micronuclei without a centromere (human lymphocytes [3]; 9.0 μg/ml): 12%
- % micronuclei with a centromere (human lymphocytes [3]; 16 μg/ml): 83%
- % micronuclei without a centromere (human lymphocytes [3]; 16 μg/ml): 17%
- % micronuclei with a centromere (human lymphocytes [3]; 25 μg/ml): 86%
- % micronuclei without a centromere (human lymphocytes [3]; 25 μg/ml): 14%
- %C− micronuclei (human lymphocytes [3]; male, human): 30%
- BMD10 (CHO-K1 cells [4]): 0.019 µg/mL
- BMDL10 (CHO-K1 cells [4]): 0.013 µg/mL
- Revised RfD ([7]; Han Wistar [Cr1 WI(Han)]): 140.62 mg/subject/day
- % Micronucleated PCE ([7]; 65 mg/kg): 1.35* %
- % PCE ([7]; 65 mg/kg): 31.74%
- % Micronucleated PCE ([7]; 130 mg/kg): 2.31* %
- % PCE ([7]; 130 mg/kg): 33.00%
- % Micronucleated PCE ([7]; 400 mg/kg): 1.94* %
- Mean plasma concentration [8]: 610 ng/mL
- Plasma Cmax [9]: < 1 ng/mL
- Plasma levels of flubendazole [10]: 81 ng/mL
- Carcinogenicity (in words) (rats; formulated diet, doses equivalent to a maximum of 20mg/kg in rats): Neither showed evidence of carcinogenicity
- Carcinogenicity (in words) (mice [5]; formulated diet, doses equivalent to a maximum of 30mg/kg in mice): Neither showed evidence of carcinogenicity
- Polyploidy (in words) (CHL cells): induce polyploidy
- Morphological transformation (in words) [11]: morphological transformation
- cytotoxicity (in vitro; 0.050 µg/ml): 0%
- cytotoxicity (in vitro; 0.075 µg/ml): 0%
- cytotoxicity (in vitro; 0.100 µg/ml): 0%
- cytotoxicity (in vitro; 0.250 µg/ml): 0%
- cytotoxicity (in vitro; 0.5 µg/ml): 4%
- cytotoxicity (in vitro; 0.500 µg/ml): 0%
- cytotoxicity (in vitro; 1.0 µg/ml): 0%
- cytotoxicity (in vitro; 1.00 µg/ml): 16%
- cytotoxicity (in vitro; 2.0 µg/ml): 0%
- cytotoxicity (in vitro; 3.0 µg/ml): 0%
- cytotoxicity (in vitro; 6.0 µg/ml): 0%
- cytotoxicity (in vitro; 6.5 µg/ml): 43%
- cytotoxicity (in vitro; 7.5 µg/ml): 8%
- cytotoxicity (in vitro; 9.0 µg/ml): 26%
- cytotoxicity (in vitro; 10.0 µg/ml): 0%
- cytotoxicity (in vitro; 12.0 µg/ml): 0%
- cytotoxicity (in vitro; 14.0 µg/ml): 14%
- cytotoxicity (in vitro; 16.0 µg/ml): 4%
- cytotoxicity (in vitro; 19.0 µg/ml): 7%
- cytotoxicity (in vitro; 25.0 µg/ml): 12%
- Td (threshold dose) (CHO-K1 cells [1]): 0.028 µg/mL
- Td–L–CI (lower confidence Td) (CHO-K1 cells [1]): 0.025 µg/mL
- Bone marrow micronucleus test result (in words) (mouse bone marrow): negative
- Induction of dominant lethal mutations (in words) (mice [12]): negative
- Ames bacterial mutation test result (in words) (bacteria (Ames test)): negative
- Induction of DNA repair (in words) (Bacillus subtilis): negative
- Mutation test result (in words) (Saccharomyces cerevisiae): negative
- Mutation test result (in words) (Drosophila melanogaster): negative

Structure (SMILES): COC(=O)Nc1nc2ccc(C(=O)c3ccccc3)cc2[nH]1 [Mebendazole, mebendazole]
- BMD10 (CHO-K1 cells [4]): 0.024 µg/mL
- BMDL10 (CHO-K1 cells [4]): 0.018 µg/mL
- Oral bioavailability [13]: around 2%
